The values below come from patent publication US20240409585A1, “MACROCYCLIC IMMUNOMODULATORS” (priority 2021, published 2024).

Bridge positions count the residues as written; N and C are the ends. Square brackets hold non-standard residues; d marks the D form. Peptide text beside a SMILES is read from it. * marks the point of attachment. ξ: configuration not given here. Phe(4-COOH) = N[C@@H](Cc1ccc(C(=O)O)cc1)C(=O)O; Bip = N[C@@H](Cc1ccc(-c2ccccc2)cc1)C(=O)O; Phe(3-OMe) = COc1cccc(C[C@H](N)C(=O)O)c1; Phe(3-Me) = Cc1cccc(C[C@H](N)C(=O)O)c1; Bta = N[C@@H](Cc1csc2ccccc12)C(=O)O; Val(3-OH) = CC(C)(O)[C@H](N)C(=O)O; hArg = N=C(N)NCCCC[C@H](N)C(=O)O; 4Pal = N[C@@H](Cc1ccncc1)C(=O)O; Cha = N[C@@H](CC1CCCCC1)C(=O)O; Cit = NC(=O)NCCC[C@H](N)C(=O)O; Ile(3ξ) = CCC(C)[C@H](N)C(=O)O; Thr(3ξ) = CC(O)[C@H](N)C(=O)O; Ahp(2) = CCCCC[C@H](N)C(=O)O; Carboxymethyl = O=C(O)C*; NMeA = CN[C@@H](C)C(=O)O; Pra = C#CC[C@H](N)C(=O)O; Dab = NCC[C@H](N)C(=O)O; Dap = NC[C@H](N)C(=O)O; ξC = NC(CS)C(=O)O

T1 sequence (Q15116 25-288): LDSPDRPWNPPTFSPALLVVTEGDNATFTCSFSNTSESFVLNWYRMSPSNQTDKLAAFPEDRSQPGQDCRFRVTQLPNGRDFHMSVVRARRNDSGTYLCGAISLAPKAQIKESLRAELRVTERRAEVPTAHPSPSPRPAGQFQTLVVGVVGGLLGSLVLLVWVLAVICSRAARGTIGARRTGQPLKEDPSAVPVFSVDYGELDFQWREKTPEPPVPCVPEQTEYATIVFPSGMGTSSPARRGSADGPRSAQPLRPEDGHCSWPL

This assay addresses T1, PE-labeled human PD-L1-Ig binding to Jurkat cell line over-expressing human PD-1 (Jurkat-PD-1) (Homo sapiens, UniProt Q15116).
T1 construct: expressed in transfected cells; host or cells: Jurkat
Description: Jurkat-PD-1 Cell Binding High-Content Screening Assay (CBA): Method 1. The following applies: Jurkat-hPD-1 cells, PE-labeled PD-L1-Ig 20 nM final; read-out: Jurkat HPDL1 PD1 IC50 (uM) (Method 1).
For the compound `CCCCC[C@@H]1NC(=O)[C@H](Cc2ccc(-c3ccccc3)cc2)NC(=O)[C@H](C(C)C)NC(=O)[C@H](Cc2c[nH]c3ccccc23)NC(=O)[C@H](CC(=O)O)NC(=O)[C@H](Cc2ccc(O)cc2)NC(=O)[C@H](CN)NC(=O)CSC[C@@H](C(=O)N[C@@H](C)C(N)=O)NC(=O)[C@H](C(C)O)NC(=O)[C@H](C(C)C)NC(=O)[C@H](CC(C)C)NC(=O)[C@H](CCN)NC(=O)[C@@H](CC(C)C)NC(=O)[C@H](C)N(C)C1=O` (stereo partly drawn) [Compound 2082] ({CH2CO}-[Dap]YDWV[Bip][Ahp(2)][NMeA][dL][Dab]LV[Thr(3ξ)]CA-NH2; thioether N-14), the IC50 was found to be 0.07 µM.

For `CC(C)C[C@H]1NC(=O)[C@H](C)N(C)C(=O)[C@H](CCC(=O)O)NC(=O)[C@H](Cc2ccc(-c3ccccc3)cc2)NC(=O)[C@H](C(C)C)NC(=O)[C@H](Cc2c[nH]c3ccccc23)NC(=O)[C@H](CC(=O)O)NC(=O)[C@H](Cc2ccc(O)cc2)NC(=O)[C@H](CCCCNC(=N)N)NC(=O)CSC[C@@H](C(=O)NCC(N)=O)NC(=O)[C@H](C(C)O)NC(=O)[C@H](C(C)C)NC(=O)[C@H](CC2CCCCC2)NC(=O)[C@H](CCN)NC1=O` (stereo partly drawn) [Compound 2094] ({CH2CO}-[hArg]YDWV[Bip]E[NMeA][dL][Dab][Cha]V[Thr(3ξ)]CG-NH2; thioether N-14), the IC50 came to 0.02 µM.

Consider `CCC(C)[C@@H]1NC(=O)[C@H](Cc2ccc(-c3ccccc3)cc2)NC(=O)[C@H](C(C)C)NC(=O)[C@H](Cc2cccc(C)c2)NC(=O)[C@H](CC(=O)O)NC(=O)[C@H](Cc2ccc(OCC(=O)O)cc2)NC(=O)[C@H](Cc2ccncc2)NC(=O)CSCC(C(=O)N[C@@H](CCC(=O)O)C(=O)N[C@@H](CN)C(=O)O)NC(=O)[C@H](CO)NC(=O)[C@H](C(C)C)NC(=O)[C@H](CC2CCCCC2)NC(=O)[C@H](CC(N)=O)NC(=O)[C@@H](CC(C)C)NC(=O)[C@H](C)N(C)C1=O` (stereo partly drawn) [Compound 2007] ({CH2CO}-[4Pal]Y(Carboxymethyl)D[Phe(3-Me)]V[Bip][Ile(3ξ)][NMeA][dL]N[Cha]VS[ξC]E[Dap]-OH; thioether N-14), for which the 50% inhibitory concentration (IC50) came out at 0.01 µM.

Consider `CC(C)C[C@@H]1NC(=O)[C@H](Cc2c[nH]c3ccccc23)NC(=O)[C@H](CC(=O)O)NC(=O)[C@H](Cc2ccncc2)NC(=O)[C@H](CN)NC(=O)CSC[C@@H](C(=O)NCC(N)=O)NC(=O)[C@H](CO)NC(=O)[C@H](C(C)C)NC(=O)[C@H](CC(C)C)NC(=O)[C@H](CC(N)=O)NC(=O)[C@@H](CC(C)C)NC(=O)[C@H](C)N(C)C(=O)[C@H](C(C)C)NC(=O)[C@H](Cc2ccc(-c3ccccc3)cc2)NC1=O` [Compound 1549] ({CH2CO}-[Dap][4Pal]DWL[Bip]V[NMeA][dL]NLVSCG-NH2; thioether N-14), for which the IC50 turned out to be 0.04 µM.

As to `CC(C)C[C@@H]1NC(=O)[C@H](CCCNC(=N)N)NC(=O)[C@H](Cc2csc3ccccc23)NC(=O)[C@H](C)N(C)C(=O)[C@H](CCCNC(=N)N)NC(=O)[C@H](Cc2ccc(-c3ccccc3)cc2)NC(=O)[C@H](C(C)C)NC(=O)[C@H](Cc2c[nH]c3ccccc23)NC(=O)[C@H](CC(=O)O)NC(=O)[C@H](Cc2ccc(O)cc2)NC(=O)[C@H](Cc2cnc[nH]2)NC(=O)CSC[C@@H](C(=O)NCC(N)=O)NC(=O)[C@H](CO)NC(=O)[C@H](C(C)C)NC1=O` [Compound 1025] ({CH2CO}-HYDWV[Bip]R[NMeA][Bta]RLVSCG-NH2; thioether N-14), the concentration for half-maximal inhibition (IC50) came to 0.12 µM.

In the case of `C#CC[C@H](NC(=O)CNC(=O)[C@@H]1CSCC(=O)N[C@@H](Cc2ccc(OCC(=O)O)cc2)C(=O)N[C@@H](Cc2ccc(C(=O)O)cc2)C(=O)N[C@@H](CC(=O)O)C(=O)N[C@@H](Cc2c[nH]c3ccccc23)C(=O)N[C@@H](CC(C)C)C(=O)N[C@@H](Cc2ccc(-c3ccccc3)cc2)C(=O)N[C@@H](C(C)C)C(=O)N(C)[C@@H](C)C(=O)N[C@H](CC(C)C)C(=O)N[C@@H](CCN)C(=O)N[C@@H](CC2CCCCC2)C(=O)N[C@@H](C(C)(C)O)C(=O)N[C@@H](CO)C(=O)N1)C(=O)O` [Compound 1935] ({CH2CO}-Y(Carboxymethyl)[Phe(4-COOH)]DWL[Bip]V[NMeA][dL][Dab][Cha][Val(3-OH)]SCG[Pra]-OH; thioether N-14), the IC50 turned out to be 0.04 µM.

In the case of `CC(C)C[C@@H]1NC(=O)[C@H](Cc2c[nH]c3ccccc23)NC(=O)[C@H](CC(=O)O)NC(=O)[C@H](Cc2ccc(OCC(=O)O)cc2)NC(=O)[C@H](Cc2ccccc2)NC(=O)CSC[C@@H](C(N)=O)NC(=O)[C@H](CO)NC(=O)[C@H](C(C)C)NC(=O)[C@H](CC(C)C)NC(=O)[C@H](CC(N)=O)NC(=O)[C@@H](CC(C)C)NC(=O)[C@H](C)N(C)C(=O)[C@H](CCC(=O)O)NC(=O)[C@H](Cc2ccc(-c3ccccc3)cc2)NC1=O` [Compound 1628] ({CH2CO}-FY(Carboxymethyl)DWL[Bip]E[NMeA][dL]NLVSC-NH2; thioether N-14), the IC50 was 0.09 µM.

As to `CC(C)C[C@H]1NC(=O)[C@H](C)N(C)C(=O)[C@H](Cc2ccc(C(=O)O)cc2)NC(=O)[C@H](Cc2ccc(-c3ccccc3)cc2)NC(=O)[C@H](CCC(N)=O)NC(=O)[C@H](Cc2c[nH]c3ccccc23)NC(=O)[C@H](CC(=O)O)NC(=O)[C@H](Cc2ccc(OCC(=O)O)cc2)NC(=O)[C@H](Cc2ccc(OCC(=O)O)cc2)NC(=O)CSC[C@@H](C(=O)N[C@@H](CO)C(N)=O)NC(=O)[C@H](CCC(=O)O)NC(=O)[C@H](C(C)(C)O)NC(=O)[C@H](CC2CCCCC2)NC(=O)[C@H](CCN)NC1=O` [Compound 2198] ({CH2CO}-Y(Carboxymethyl)Y(Carboxymethyl)DWQ[Bip][Phe(4-COOH)][NMeA][dL][Dab][Cha][Val(3-OH)]ECS-NH2; thioether N-14), the concentration for half-maximal inhibition (IC50) amounted to 0.11 µM.

Take `COc1cccc(C[C@@H]2NC(=O)[C@H](CC(=O)O)NC(=O)[C@H](Cc3ccc(OCC(=O)O)cc3)NC(=O)[C@H](CN)NC(=O)CSC[C@@H](C(=O)N[C@@H](C)C(N)=O)NC(=O)[C@H]([C@@H](C)O)NC(=O)[C@H](C(C)C)NC(=O)[C@H](CC(C)C)NC(=O)[C@H](CCN)NC(=O)[C@@H](CC(C)C)NC(=O)[C@H](C)N(C)C(=O)[C@H](CCCNC(N)=O)NC(=O)[C@H](Cc3ccc(-c4ccccc4)cc3)NC(=O)[C@H](C(C)C)NC2=O)c1` [Compound 1448] ({CH2CO}-[Dap]Y(Carboxymethyl)D[Phe(3-OMe)]V[Bip][Cit][NMeA][dL][Dab]LVTCA-NH2; thioether N-14): the 50% inhibitory concentration (IC50) was 0.06 µM.

On to `CC(C)C[C@@H]1NC(=O)[C@H](CCN)NC(=O)[C@@H](CC(C)C)NC(=O)[C@H](C)N(C)C(=O)[C@H](CC(=O)O)NC(=O)[C@H](Cc2ccc(-c3ccccc3)cc2)NC(=O)[C@H](C(C)C)NC(=O)[C@H](Cc2c[nH]c3ccccc23)NC(=O)[C@H](CC(=O)O)NC(=O)[C@H](Cc2ccc(O)cc2)NC(=O)[C@H](CC(N)=O)NC(=O)CSC[C@@H](C(=O)N[C@@H](C)C(N)=O)NC(=O)[C@H]([C@@H](C)O)NC(=O)[C@H](C(C)C)NC1=O` [Compound 1260] ({CH2CO}-NYDWV[Bip]D[NMeA][dL][Dab]LVTCA-NH2; thioether N-14), for which the concentration for half-maximal inhibition (IC50) is 0.17 µM.

As for `Cc1cccc(C[C@@H]2NC(=O)[C@H](CC(=O)O)NC(=O)[C@H](Cc3ccc(OCC(=O)O)cc3)NC(=O)[C@H](Cc3ccncc3)NC(=O)CSC[C@@H](C(N)=O)NC(=O)[C@H](CCC(N)=O)NC(=O)[C@H](C(C)C)NC(=O)[C@H](CC3CCCCC3)NC(=O)[C@H](CCN)NC(=O)[C@@H](CC(C)C)NC(=O)[C@H](C)N(C)C(=O)[C@H](Cc3ccc(OCC(=O)O)cc3)NC(=O)[C@H](Cc3ccc(-c4ccccc4)cc3)NC(=O)[C@H](Cc3ccc(OCC(=O)O)cc3)NC2=O)c1` [Compound 1659] ({CH2CO}-[4Pal]Y(Carboxymethyl)D[Phe(3-Me)]Y(Carboxymethyl)[Bip]Y(Carboxymethyl)[NMeA][dL][Dab][Cha]VQC-NH2; thioether N-14), the IC50 was found to be 0.03 µM.

For the compound `CC(C)C[C@@H]1NC(=O)[C@H](Cc2c[nH]c3ccccc23)NC(=O)[C@H](CC(=O)O)NC(=O)[C@H](Cc2ccc(C(=O)O)cc2)NC(=O)[C@H](Cc2ccc(OCC(=O)O)cc2)NC(=O)CSC[C@@H](C(N)=O)NC(=O)[C@H](CCCCN)NC(=O)[C@H](C(C)C)NC(=O)[C@H](CC(C)C)NC(=O)[C@H](CC(N)=O)NC(=O)[C@@H](CC(C)C)NC(=O)[C@H](C)N(C)C(=O)[C@H](C(C)C)NC(=O)[C@H](Cc2ccc(-c3ccccc3)cc2)NC1=O` [Compound 2258] ({CH2CO}-Y(Carboxymethyl)[Phe(4-COOH)]DWL[Bip]V[NMeA][dL]NLVKC-NH2; thioether N-14), the 50% inhibitory concentration (IC50) came out at 0.16 µM.

With `CC(C)C[C@@H]1NC(=O)[C@H](CCN)NC(=O)[C@@H](CC(C)C)NC(=O)[C@H](C)N(C)C(=O)[C@H](CC(C)C)NC(=O)[C@H](Cc2ccc(-c3ccccc3)cc2)NC(=O)[C@H](C(C)C)NC(=O)[C@H](Cc2c[nH]c3ccccc23)NC(=O)[C@H](CC(=O)O)NC(=O)[C@H](Cc2ccc(O)cc2)NC(=O)[C@H](CC(N)=O)NC(=O)CSC[C@@H](C(=O)N[C@@H](C)C(N)=O)NC(=O)[C@H]([C@@H](C)O)NC(=O)[C@H](C(C)C)NC1=O` [Compound 1270] ({CH2CO}-NYDWV[Bip]L[NMeA][dL][Dab]LVTCA-NH2; thioether N-14), the IC50 amounted to 0.11 µM.

`CC[C@H](C)[C@@H]1NC(=O)[C@H](Cc2ccc(-c3ccccc3)cc2)NC(=O)[C@H](C(C)C)NC(=O)[C@H](Cc2c[nH]c3ccccc23)NC(=O)[C@H](CC(=O)O)NC(=O)[C@H](Cc2ccc(O)cc2)NC(=O)[C@H](Cc2ccc(OCC(=O)O)cc2)NC(=O)CSC[C@@H](C(=O)N[C@@H](C)C(N)=O)NC(=O)[C@H]([C@@H](C)O)NC(=O)[C@H](C(C)C)NC(=O)[C@H](CC(C)C)NC(=O)[C@H](CCCNC(=N)N)NC(=O)[C@@H](CC(C)C)NC(=O)[C@H](C)N(C)C1=O` [Compound 1489] ({CH2CO}-Y(Carboxymethyl)YDWV[Bip]I[NMeA][dL]RLVTCA-NH2; thioether N-14): the IC50 is 0.04 µM.

As for `CC(C)C[C@@H]1NC(=O)[C@H](CCN)NC(=O)[C@@H](CC(C)C)NC(=O)[C@H](C)N(C)C(=O)[C@H](CCCNC(=N)N)NC(=O)[C@H](Cc2ccc(-c3ccccc3)cc2)NC(=O)[C@H](C(C)C)NC(=O)[C@H](Cc2c[nH]c3ccccc23)NC(=O)[C@H](CC(N)=O)NC(=O)[C@H](Cc2ccc(OCC(=O)O)cc2)NC(=O)[C@H](CC(N)=O)NC(=O)CSC[C@@H](C(=O)N[C@@H](C)C(N)=O)NC(=O)[C@H]([C@@H](C)O)NC(=O)[C@H](C(C)C)NC1=O` [Compound 1206] ({CH2CO}-NY(Carboxymethyl)NWV[Bip]R[NMeA][dL][Dab]LVTCA-NH2; thioether N-14), the IC50 amounted to 0.59 µM.
